Experimental data reported in ChEMBL document CHEMBL3045835, “Comparative study of conventional and microwave-assisted synthesis of some Schiff bases and their potential as antimicrobial agents” (2012).
Values after ≈ are worked out from the molar mass of the structure shown.

Columns and labels:
Type in all cases: functional
Micrococcus luteus [1] = assay: Antibacterial activity against Micrococcus luteus MTCC 1538 after 24 hr by broth dilution method; conditions: MTCC 1538, 24 h
Bacillus subtilis [2] = assay: Antibacterial activity against Bacillus subtilis MTCC 441 at 1000 ug/ml after 18 hr by cup plate method; conditions: MTCC 441, 18 h, read-out: DIZ
Micrococcus luteus [3] = assay: Antibacterial activity against Micrococcus luteus MTCC 1538 at 200 ug/ml after 18 hr by cup-plate method; conditions: MTCC 1538, 18 h, read-out: DIZ
Pseudomonas fluorescens [4] = assay: Antibacterial activity against Pseudomonas fluorescens MTCC 2421 at 1500 ug/ml after 18 hr by cup-plate method; conditions: MTCC 2421, 18 h, read-out: DIZ
Pseudomonas fluorescens [5] = assay: Antibacterial activity against Pseudomonas fluorescens MTCC 2421 at 500 ug/ml after 18 hr by cup-plate method; conditions: MTCC 2421, 18 h, read-out: DIZ
Pseudomonas fluorescens [6] = assay: Antibacterial activity against Pseudomonas fluorescens MTCC 2421 at 200 ug/ml after 18 hr by cup-plate method; conditions: MTCC 2421, 18 h, read-out: DIZ
Pseudomonas aeruginosa [7] = assay: Antibacterial activity against Pseudomonas aeruginosa MTCC 424 at 1000 ug/ml after 18 hr by cup-plate method; conditions: MTCC 424, 18 h, read-out: DIZ
Penicillium chrysogenum = assay: Antifungal activity against Penicillium chrysogenum MTCC 161 at 100 ug/ml after 18 hr by cup-plate method; conditions: MTCC 161, 18 h, read-out: DIZ
Escherichia coli [8] = assay: Antibacterial activity against Escherichia coli MTCC 1573 at 200 ug/ml after 18 hr by cup-plate method; conditions: MTCC 1573, 18 h, read-out: DIZ
Escherichia coli [9] = assay: Antibacterial activity against Escherichia coli MTCC 1573 at 1500 ug/ml after 18 hr by cup-plate method; conditions: MTCC 1573, 18 h, read-out: DIZ
Micrococcus luteus [10] = assay: Antibacterial activity against Micrococcus luteus MTCC 1538 at 1000 ug/ml after 18 hr by cup-plate method; conditions: MTCC 1538, 18 h, read-out: DIZ
Pseudomonas aeruginosa [11] = assay: Antibacterial activity against Pseudomonas aeruginosa MTCC 424 at 200 ug/ml after 18 hr by cup-plate method; conditions: MTCC 424, 18 h, read-out: DIZ
Escherichia coli [12] = assay: Antibacterial activity against Escherichia coli MTCC 1573 at 1000 ug/ml after 18 hr by cup-plate method; conditions: MTCC 1573, 18 h, read-out: DIZ
Staphylococcus aureus [13] = assay: Antibacterial activity against Staphylococcus aureus MTCC 1430 at 500 ug/ml after 18 hr by cup-plate method; conditions: MTCC 1430, 18 h, read-out: DIZ
Pseudomonas fluorescens [14] = assay: Antibacterial activity against Pseudomonas fluorescens MTCC 2421 at 100 ug/ml after 18 hr by cup-plate method; conditions: MTCC 2421, 18 h, read-out: DIZ
Aspergillus niger [15] = assay: Antifungal activity against Aspergillus niger MTCC 2546 at 500 ug/ml after 18 hr by cup-plate method; conditions: MTCC 2546, 18 h, read-out: DIZ
Aspergillus niger [16] = assay: Antifungal activity against Aspergillus niger MTCC 2546 at 200 ug/ml after 18 hr by cup-plate method; conditions: MTCC 2546, 18 h, read-out: DIZ
Bacillus subtilis [17] = assay: Antibacterial activity against Bacillus subtilis MTCC 441 at 100 ug/ml after 18 hr by cup plate method; conditions: MTCC 441, 18 h, read-out: DIZ
Pseudomonas aeruginosa [18] = assay: Antibacterial activity against Pseudomonas aeruginosa MTCC 424 at 100 ug/ml after 18 hr by cup-plate method; conditions: MTCC 424, 18 h, read-out: DIZ
Bacillus pumilus = assay: Antibacterial activity against Bacillus pumilus MTCC 1456 at 500 ug/ml after 18 hr by cup-plate method; conditions: MTCC 1456, 18 h, read-out: DIZ
Micrococcus luteus [19] = assay: Antibacterial activity against Micrococcus luteus MTCC 1538 at 500 ug/ml after 18 hr by cup-plate method; conditions: MTCC 1538, 18 h, read-out: DIZ
Pseudomonas aeruginosa [20] = assay: Antibacterial activity against Pseudomonas aeruginosa MTCC 424 at 500 ug/ml after 18 hr by cup-plate method; conditions: MTCC 424, 18 h, read-out: DIZ
Escherichia coli [21] = assay: Antibacterial activity against Escherichia coli MTCC 1573 at 100 ug/ml after 18 hr by cup-plate method; conditions: MTCC 1573, 18 h, read-out: DIZ
Staphylococcus aureus [22] = assay: Antibacterial activity against Staphylococcus aureus MTCC 1430 after 24 hr by broth dilution method; conditions: MTCC 1430, 24 h
Staphylococcus aureus [23] = assay: Antibacterial activity against Staphylococcus aureus MTCC 1430 at 200 ug/ml after 18 hr by cup-plate method; conditions: MTCC 1430, 18 h, read-out: DIZ
Micrococcus luteus [24] = assay: Antibacterial activity against Micrococcus luteus MTCC 1538 at 100 ug/ml after 18 hr by cup-plate method; conditions: MTCC 1538, 18 h, read-out: DIZ
Staphylococcus aureus [25] = assay: Antibacterial activity against Staphylococcus aureus MTCC 1430 at 1000 ug/ml after 18 hr by cup-plate method; conditions: MTCC 1430, 18 h, read-out: DIZ

SMILES: Clc1ccc(/N=C/c2cccs2)cc1
- MIC (Micrococcus luteus [1]): 400 µg/mL (≈ 1800 µM)
- zone of inhibition at 1000 µg/mL (Bacillus subtilis [2]): 18 mm
- zone of inhibition at 200 µg/mL (Micrococcus luteus [3]): 15 mm
- zone of inhibition at 1500 µg/mL (Pseudomonas fluorescens [4]): 20 mm
- zone of inhibition at 500 µg/mL (Pseudomonas fluorescens [5]): 16 mm
- zone of inhibition at 200 µg/mL (Pseudomonas fluorescens [6]): 13 mm
- zone of inhibition at 1000 µg/mL (Pseudomonas aeruginosa [7]): 17 mm
- zone of inhibition at 100 µg/mL (Penicillium chrysogenum): 13 mm
- zone of inhibition at 200 µg/mL (Escherichia coli [8]): 15 mm
- zone of inhibition at 1500 µg/mL (Escherichia coli [9]): 20 mm
- zone of inhibition at 1000 µg/mL (Micrococcus luteus [10]): 20 mm
- zone of inhibition at 200 µg/mL (Pseudomonas aeruginosa [11]): 13 mm
- zone of inhibition at 1000 µg/mL (Escherichia coli [12]): 19 mm
- zone of inhibition at 500 µg/mL (Staphylococcus aureus [13]): 15 mm
- zone of inhibition at 100 µg/mL (Pseudomonas fluorescens [14]): 11 mm
- zone of inhibition at 500 µg/mL (Aspergillus niger [15]): 12 mm
- zone of inhibition at 200 µg/mL (Aspergillus niger [16]): 11 mm
- zone of inhibition at 100 µg/mL (Bacillus subtilis [17]): 11 mm
- zone of inhibition at 100 µg/mL (Pseudomonas aeruginosa [18]): 10 mm
- zone of inhibition at 500 µg/mL (Bacillus pumilus): 17 mm
- zone of inhibition at 500 µg/mL (Micrococcus luteus [19]): 18 mm
- zone of inhibition at 500 µg/mL (Pseudomonas aeruginosa [20]): 16 mm
- zone of inhibition at 100 µg/mL (Escherichia coli [21]): 13 mm
- MIC (Staphylococcus aureus [22]): 300 µg/mL (≈ 1350 µM)
- zone of inhibition at 200 µg/mL (Staphylococcus aureus [23]): 13 mm
- zone of inhibition at 100 µg/mL (Micrococcus luteus [24]): 11 mm
- zone of inhibition at 1000 µg/mL (Staphylococcus aureus [25]): 16 mm
